The record followed here is patent US5281608A, “Substituted tetrahydropyrido[3',4':4,5]-pyrrolo[3,2-c]quinolines” (American Home Products Corporation, priority 1992, dated 1994).

A word on the inhibition: it is the relative decrease from the control value, in per cent. A low value points to a response near the control. In general, IC50 refers to the point on the concentration scale where inhibition reaches its midpoint.

In brackets after ≈: the same amount, converted by molar mass.

Experiment [1] relates to rabbit articular chondrocytes (IL-1-induced neutral protease release). The experiment can be described thus: Inhibition of IL-1-induced release of neutral protease from rabbit articular chondrocytes. In kind it is cell-based, rabbit (Male New Zealand White). The following applies: Oryctolagus cuniculus, Chondrocyte, human IL-1 stimulated, 24 h. The procedure: The ability of the compounds of the invention to inhibit interleukin 1 is measured by the ability of the test compounds to inhibit the IL-1-induced release of neutral protease from rabbit articular chondrocytes.
Male New Zealand White rabbits are anesthetized with 50 mg/kg of ketamine (i.m.) and killed by an intracardiac injection of 3 mls. of Nembutal. The knee joints of both legs are resected and the articular surfaces are exposed. Cartilage slices are obtained using a scalpel and are placed in a tissue culture dish (100 mm diameter) containing 10 mls of Hank's balanced salt solution (HBSS). The chondrocytes within the cartilage slices are then liberated by a series of enzyme digestions. The slices are incubated for 10 minutes at 37° C. in 0.05% hyaluronidase (Sigma H-3884), rinsed with HBSS and incubated with 0.2% trypsin (Sigma T-2395) for 10 minutes at 37° C. The slices are rinsed again and incubated for 10 minutes at 37° C. with 1.2% collagenase (Sigma C-5138). The slices are then rinsed again with HBSS and resuspended in 10 ml of Ham's F-12 medium containing 10% fetal bovine calf serum (FCS) and 0.2 % collagenase and incubated overnight at 37° C. in a 5% CO2 incubator. The next day, the medium containing the digested cartilage fragments and liberated chondrocytes is transferred to a 15 ml centrifuge tube and the cells are collected by centrifugation and washed twice and resuspended in Ham's F-12 medium. The cells are then plated into 24-well tissue culture plates (2×10^5 cells/well) and incubated at 37° C. until confluent (usually 4-6 days).
The confluent chondrocytes are rinsed twice with serum-free Ham's F-12 medium and 1 ml is added to each well. Fifty μl of purified human IL 1 (100 Units/ml; Genzyme Corporation, Boston, Mass.) is then added to stimulate these cells to secrete neutral protease. To measure drug effects, the cells are treated with test compound 10 minutes prior to addition of IL-1. The standard screening dose is 10 μM. Twenty-four hours after IL-1 stimulation, supernatant fluids are collected and assayed for neutral protease activity.
The neutral protease activity of chondrocyte supernatant fluids is determined by their ability to degrade an insoluble protease substrate, azocoll (Sigma). Supernatants are treated for 10 minutes at room temperature with 350 μM p-aminophenylmurcuric acetate to activate the latent enzyme. Three hundred μl of supernatant is then mixed with 500μl of a 20 mg/ml suspension of azocoll and incubated at 37° C. for 18-24 hours with gentle rocking. The mixtures are centrifuged and the amount of substrate hydrolyzed is determined by measuring the absorbance of the supernatant at 520 nm.
Drug effects are calculated as the % change in enzyme activity (absorbance)by supernatants from drug-treated chondrocytes relative to enzyme activity of supernatants from vehicle-treated chondrocytes as follows: [formula]

Experiment [2] relates to rat limb bones (PTH-induced bone resorption). The experiment can be described thus: Bone resorption assay (45Ca release from rat limb bones), PTH-induced. The following applies: 48 h; for IC50: Rattus norvegicus, read-out: Inhibition of Bone Resorption, PTH-Induced (IC50). It counts as cell-based, rat (Sprague-Dawley CD). The protocol:
(§1) The ability of the compounds of the invention to modify the process of bone resorption is evaluated in the bone resorption assay measuring ^45 Ca release from rat limb bones.
(§2) Limb bone preparation. Timed pregnant Sprague-Dawley CD® rats (Charles River) are administered 100 μCi ^45 CaCl2 (NEN calcium -45 NEZ-013) in 100 μl of 0.9% saline, subcutaneously, on day 18 of gestation. The rats are sacrificed the following day by CO2 asphyxiation. The fetuses are removed and the right forelimbs excised and placed in a Petri dish containing ice cold explant medium consisting of modified BGJb -Fitton Jackson media (custom formulation, Gibco No. 78-0088) adjusted to pH 7.3 to which 10 mM TES is added. The modified BGJb media is obtained without salts, glucose or bicarbonate and is supplemented before use with 0.1 mM MgCl2, 1.25 mM CaCl2, 5.3 mM KCl, 0.7 mM MgSO4, 130 mM NaCl, 1.0 mM NaH2 PO4, 1 g/L glucose, 50 mg/L Na acetate and 100 U/ml penicillin G. The medium is sterilized by passage through a 0.2 μ M filter (Nalge). Under a dissecting microscope, the bones are gently cleaned of adherent tissue and the cartilaginous ends removed. Incubation and drug treatment. The midshafts are placed, individually, on 3×3 mm squares of filter paper (Gelman GN-6 metricel filters; […] pore size) which rest on stainless steel screens in wells of 24-well culture plates containing 0.5 mL of preincubation medium. The preincubation medium is brought to 37° C. prior to transfer of bones. The preincubation medium consists of the modified BGJb medium (with salts and glucose as above), pH 7.3, containing 29 mM NaHCO3. After incubation for 18-24 hours at 37° C. in 5% CO2, the bones are transferred on their screen/filter paper supports to new plates containing, in a total volume of 0.5 mL/well at 37° C., the test compound diluted in preincubation medium supplemented with 15% heat inactivated horse serum (Gibco No. 230-6050), pH 7.3, with a bone resorption stimulating agent (e.g. parathyroid hormone [PTH] or interleukin-1 [IL-1]). For compounds that require nonaqueous solvents, dilutions are made from the appropriate stock solution with medium. In these instances, basal and bone resorption stimulated controls exposed to an equivalent concentration of the vehicle are included. An additional group of bones that have been subjected to boiling for 1 hour (kill control) are used to establish background, non cell mediated, exchange of ^45 Ca. The right ulna and radius from each fetus are used. Both bones are subjected to the same treatment and each treatment group consists of bones from 4 or more fetuses. Treatments are randomly assigned using a preclinical statistics program (PS-ALLOC). After a 48 hour incubation at 37° C. in 5% CO2, the bones are removed from the medium and extracted in 0.5 mL of 0.1N HCl for 1 or more days. Duplicate 150 μL aliquots of the incubation medium and the bone extract are analyzed for ^45 Ca radioactivity in 5 mL of liquid scintillation cocktail.
(§3) The percentage of bone ^45 Ca released into the medium is determined as follows: [formula] Results are normally expressed as the ratio of the percent ^45 Ca release of the experimental group versus the appropriate vehicle control, or as an IC50 value.

The test system of experiment [3] is rat limb bones (IL-1 induced bone resorption). The experiment can be described thus: Bone resorption assay (45Ca release from rat limb bones), IL-1 induced. The following applies: 48 h; for IC50: Rattus norvegicus, read-out: Inhibition of Bone Resorption, IL-1 Induced (IC50). In kind it is cell-based, rat (Sprague-Dawley CD). The protocol: as §1, §2, §3

In experiment [1], `CCOC(=O)c1ccc(N2CCc3[nH]c4c(cnc5cc(Cl)ccc54)c3C2)cc1` [Example 2, 4-(3-Chloro-8,9,10,11-tetrahydro-7H-pyrido[3',4':4,5]-pyrrolo[3,2-c]quinolin-8-yl)benzoic acid ethyl ester] came in with an inhibition at 10 µM of 38%. Also, in experiment [2], the “Inhibition of Bone Resorption, PTH-Induced (activity in words)” value is listed as “Active” and the concentration for half-maximal inhibition (IC50) was 0.98 µg/mL (≈ 2.41 µM). For the same molecule, in experiment [3], the “Inhibition of Bone Resorption, IL-1 Induced (activity in words)” value is listed as “Active” and the IC50 was determined as 3.39 µg/mL (≈ 8.35 µM).
In turn, `O=C(c1ccccc1)N1CCc2[nH]c3c(cnc4cc(Cl)ccc43)c2C1` [Example 6, 8-Benzoyl-3-Chloro-8,9,10,11-tetrahydro-7H-pyrido[3',4':4,5]pyrrolo[3,2-c]quinoline] returned an inhibition at 10 µM in experiment [1] of 57%. In addition, the “Inhibition of Bone Resorption, PTH-Induced (activity in words)” value in experiment [2] is “Active at 10 μg/ml”. The “Inhibition of Bone Resorption, IL-1 Induced (activity in words)” value in experiment [3] is “Active at 5 μg/ml”.
With `O=C(c1ccncc1)N1CCc2[nH]c3c(cnc4cc(Cl)ccc43)c2C1` [Example 8, 3-Chloro-8,9,10,11-tetrahydro-8-(4-pyridinylcarbonyl)-7H-pyrido[3',4':4,5]pyrrolo[3,2-c]quinoline], 10 µM produced 35% inhibition in experiment [1]. In addition, the “Inhibition of Bone Resorption, PTH-Induced (activity in words)” value in experiment [2] was “Active at 10 μg/ml”. Also, in experiment [3], the “Inhibition of Bone Resorption, IL-1 Induced (activity in words)” value is on record as “Active” and the IC50 is 1.96 µg/mL (≈ 5.4 µM).
In the case of `O=C(c1ccco1)N1CCc2[nH]c3c(cnc4cc(Cl)ccc43)c2C1` [Example 9, 3-Chloro-8-(2-furanylcarbonyl)-8,9,10,11-tetrahydro-7H-pyrido[3',4':4,5]pyrrolo[3,2-c]quinoline], the inhibition at 10 µM in experiment [1] came out at 36%. In addition, in experiment [2], the “Inhibition of Bone Resorption, PTH-Induced (activity in words)” value is “Active” and the concentration for half-maximal inhibition (IC50) was 2.88 µg/mL (≈ 8.19 µM). Also, in experiment [3], the “Inhibition of Bone Resorption, IL-1 Induced (activity in words)” value is “Active” and the IC50 came to 0.307 µg/mL (≈ 0.873 µM).
In the case of `O=S(=O)(c1cccs1)N1CCc2[nH]c3c(cnc4cc(Cl)ccc43)c2C1` [Example 11, 3-Chloro-8,9,10,11-tetrahydro-8-(2-thienylsulfonyl)-7H-pyrido [3',4':4,5]pyrrolo[3,2-c]quinoline], the inhibition at 1 µM in experiment [1] (dose 1 μM) was less than 20%. In experiment [2], the “Inhibition of Bone Resorption, PTH-Induced (activity in words)” value is recorded as “Active” and the concentration for half-maximal inhibition (IC50) was 0.144 µg/mL (≈ 0.357 µM). Also, in experiment [3], the “Inhibition of Bone Resorption, IL-1 Induced (activity in words)” value was “Active” and the IC50 is 0.018 µg/mL (≈ 0.0446 µM).
For the molecule `O=C(Oc1ccccc1)N1CCc2[nH]c3c(cnc4cc(Cl)ccc43)c2C1` [Example 12, 3-Chloro-7,9,10,11-tetrahydro-8H-pyrido[3',4':4,5]pyrrolo-[3,2-c]quinoline-8-carboxylic Acid Phenyl Ester], the inhibition at 10 µM in experiment [1] was less than 20%. For the same molecule, in experiment [2], the “Inhibition of Bone Resorption, PTH-Induced (activity in words)” value is “Active” and the half-maximal inhibitory concentration (IC50) came out at 0.274 µg/mL (≈ 0.725 µM). In experiment [3], the “Inhibition of Bone Resorption, IL-1 Induced (activity in words)” value is on record as “Active” and the IC50 worked out at 0.76 µg/mL (≈ 2.01 µM).
